The source of these data is ChEMBL document CHEMBL3046644, “Biological activity of tropolone” (Biol Pharm Bull, 2003).

One test addresses T1, Thermolysin (Bacillus thermoproteolyticus, UniProt P00800).
T1 sequence (P00800 whole entry): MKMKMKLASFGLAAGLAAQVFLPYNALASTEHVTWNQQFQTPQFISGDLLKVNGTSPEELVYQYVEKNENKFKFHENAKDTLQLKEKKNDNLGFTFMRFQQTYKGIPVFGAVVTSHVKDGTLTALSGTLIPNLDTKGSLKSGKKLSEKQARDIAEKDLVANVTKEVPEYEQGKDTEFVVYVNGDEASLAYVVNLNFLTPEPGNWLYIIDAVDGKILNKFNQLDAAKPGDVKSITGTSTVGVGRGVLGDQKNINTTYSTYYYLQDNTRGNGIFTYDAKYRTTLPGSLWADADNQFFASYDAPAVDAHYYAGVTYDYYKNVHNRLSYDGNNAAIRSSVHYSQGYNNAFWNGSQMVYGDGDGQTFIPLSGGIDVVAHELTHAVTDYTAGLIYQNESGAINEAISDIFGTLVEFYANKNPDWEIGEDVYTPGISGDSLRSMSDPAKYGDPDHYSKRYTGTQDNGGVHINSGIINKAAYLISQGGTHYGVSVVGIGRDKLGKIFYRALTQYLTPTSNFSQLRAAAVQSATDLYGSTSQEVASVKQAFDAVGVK
In words: Inhibition of Bacillus thermoproteolyticus thermolysin after 15 min.

The subject of test [1] is Coptotermes formosanus. As to the kind of experiment: Insecticidal activity against Coptotermes formosanus assessed as mortality at 0.100 g/m'2 after 48 hr. Type of test: functional.
Another test has as its system Phomopsis obscurans. In words: Antifungal activity against Phomopsis obscurans MAFF 744018 after 15 days by agar dilution method. It is filed as functional. The conditions noted are these: Paraphomopsis obscurans, MAFF 744018, 360 h.
In another test the test system is Thanatephorus cucumeris. As to the kind of experiment: Antifungal activity against Thanatephorus cucumeris IFO 30445 after 15 days by agar dilution method. It is filed as functional. Particulars: IFO 30445, 360 h. (In general: In agar dilution the substance is mixed into plates at graded concentrations.)
For a further test, the system named is Pythium aphanidermatum. As to the kind of experiment: Antifungal activity against Pythium aphanidermatum IFO 32440 after 15 days by agar dilution method. Type of test: functional. The conditions noted are these: IFO 32440, 360 h.
Test [2] has as its system Dermatophagoides farinae. As to the kind of experiment: Insecticidal activity against Dermatophagoides farinae assessed as mortality at 0.10 g/m'2 after 24 hr by clip method. Type of test: functional.
The test system of test [3] is Dermatophagoides farinae. In words: Insecticidal activity against Dermatophagoides farinae assessed as mortality after 24 hr by clip method. Type of test: functional.
For a further test, the target named is T2, Collagenase ColG (Clostridium histolyticum, UniProt Q9X721).
T2 sequence (Q9X721 whole entry): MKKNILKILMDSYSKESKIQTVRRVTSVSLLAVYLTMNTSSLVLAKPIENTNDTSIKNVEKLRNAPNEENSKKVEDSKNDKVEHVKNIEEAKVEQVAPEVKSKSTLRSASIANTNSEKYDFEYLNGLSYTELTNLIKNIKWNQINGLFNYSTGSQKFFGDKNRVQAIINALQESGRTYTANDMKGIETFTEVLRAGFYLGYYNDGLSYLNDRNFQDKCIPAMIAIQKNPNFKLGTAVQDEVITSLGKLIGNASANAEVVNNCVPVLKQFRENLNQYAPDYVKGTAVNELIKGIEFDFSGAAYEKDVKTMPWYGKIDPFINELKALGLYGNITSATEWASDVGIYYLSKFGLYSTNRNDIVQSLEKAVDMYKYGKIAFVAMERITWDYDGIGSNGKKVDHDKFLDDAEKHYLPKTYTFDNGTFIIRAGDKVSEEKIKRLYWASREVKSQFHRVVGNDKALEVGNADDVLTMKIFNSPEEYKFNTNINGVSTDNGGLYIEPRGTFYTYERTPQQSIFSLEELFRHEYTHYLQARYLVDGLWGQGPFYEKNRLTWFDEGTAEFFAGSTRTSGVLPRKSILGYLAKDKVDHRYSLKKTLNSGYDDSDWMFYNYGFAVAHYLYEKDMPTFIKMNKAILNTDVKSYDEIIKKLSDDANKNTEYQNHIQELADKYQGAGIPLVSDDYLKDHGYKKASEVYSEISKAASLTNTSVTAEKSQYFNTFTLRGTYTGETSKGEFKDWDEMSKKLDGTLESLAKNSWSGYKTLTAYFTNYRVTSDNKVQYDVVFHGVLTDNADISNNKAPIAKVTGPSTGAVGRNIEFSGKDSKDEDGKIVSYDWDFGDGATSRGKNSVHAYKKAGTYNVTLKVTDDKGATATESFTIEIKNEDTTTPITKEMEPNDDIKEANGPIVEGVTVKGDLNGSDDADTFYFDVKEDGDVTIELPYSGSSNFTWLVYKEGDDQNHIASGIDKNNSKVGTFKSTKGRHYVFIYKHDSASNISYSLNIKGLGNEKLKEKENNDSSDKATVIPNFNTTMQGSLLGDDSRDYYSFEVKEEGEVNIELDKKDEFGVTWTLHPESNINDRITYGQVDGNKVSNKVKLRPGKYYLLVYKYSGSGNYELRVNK
In words: Inhibition of Clostridium histolyticum collagenase after 15 min. Also noted: species or system Hathewaya histolytica.

The subject of test [4] is Coptotermes formosanus. As to the kind of experiment: Insecticidal activity against Coptotermes formosanus assessed as mortality at 0.050 g/m'2 after 48 hr. It is filed as functional.
For a further test, the system named is Botrytis cinerea. As to the kind of experiment: Antifungal activity against Botryotinia fuckeliana IFO 30915 after 15 days by agar dilution method. The conditions noted are these: IFO 30915, 360 h. Type of test: functional.
In test [5] the test system is Tyrophagus putrescentiae. As to the kind of experiment: Insecticidal activity against Tyrophagus putrescentiae assessed as mortality at 0.40 g/m'2 after 24 hr by clip method. Type of test: functional.
Test [6] relates to Tyrophagus putrescentiae. In words: Insecticidal activity against Tyrophagus putrescentiae assessed as mortality at 0.20 g/m'2 after 24 hr by clip method. It is filed as functional.
In test [7] the test system is Tyrophagus putrescentiae. In words: Insecticidal activity against Tyrophagus putrescentiae assessed as mortality after 24 hr by clip method. It is filed as functional.
For test [8], the system named is Coptotermes formosanus. As to the kind of experiment: Insecticidal activity against Coptotermes formosanus assessed as mortality at 0.100 g/m'2 after 24 hr. It is filed as functional.
The test system of test [9] is Coptotermes formosanus. In words: Insecticidal activity against Coptotermes formosanus assessed as mortality at 0.200 g/m'2 after 48 hr. It is filed as functional.
A further test concerns Colletotrichum lagenaria. As to the kind of experiment: Antifungal activity against Colletotrichum lagenaria after 15 days by agar dilution method. It is filed as functional. Particulars: 360 h.
The test system of test [10] is Colletotrichum orbiculare. In words: Antifungal activity against Colletotrichum orbiculare MAFF 306518 after 15 days by agar dilution method. Type of test: functional. The conditions noted are these: MAFF 306518, 360 h.
In test [11] the test system is Coptotermes formosanus. In words: Insecticidal activity against Coptotermes formosanus assessed as mortality at 0.200 g/m'2 after 24 hr. It is filed as functional.
The subject of test [12] is Dermatophagoides farinae. As to the kind of experiment: Insecticidal activity against Dermatophagoides farinae assessed as mortality at 0.05 g/m'2 after 24 hr by clip method. It is filed as functional.

Structures are written as SMILES. pIC50: −log10 of the molar value. Values after ≈ are worked out from the molar mass of the structure shown.

For orientation: pIC50 means the negative decadic logarithm of the IC50, by convention in mol/L. In general, mortality refers to the share of the test organisms that died. One may read the MIC as the lowest concentration that inhibits growth of the organism. Regarding `O=c1cccccc1O` [TROPOLONE], the results for the pIC50 against Thermolysin and at Collagenase ColG were 4.15 and 4.33, respectively. In addition, the mortality came to 89.5% in the test with Coptotermes formosanus [1]; 24.5% in the test on Dermatophagoides farinae [2]; 77.8% in the test with Coptotermes formosanus [4]; 55.8% in the test with Tyrophagus putrescentiae [5]; 9.6% in the test on Tyrophagus putrescentiae [6]; 78.9% in the test on Coptotermes formosanus [8]. Besides, the mortality was determined as 100% in the test with Coptotermes formosanus [9], 100% in the test with Coptotermes formosanus [11] and 7.5% in the test with Dermatophagoides farinae [12]. For the same compound, the MIC was 12 µg/mL (≈ 98.3 µM) in the test on Phomopsis obscurans; 12 µg/mL (≈ 98.3 µM) in the test on Thanatephorus cucumeris; 6 µg/mL (≈ 49.1 µM) with Pythium aphanidermatum; 25 µg/mL (≈ 205 µM) in the test with Botrytis cinerea; 12 µg/mL (≈ 98.3 µM) in the test on Colletotrichum lagenaria; 12 µg/mL (≈ 98.3 µM) in test [10]. Besides, the LC50 in the test with Dermatophagoides farinae [3] was 0.08 g/m2; in the test with Tyrophagus putrescentiae [7], 0.11 g/m2.

With `CC(C)c1cccc(=O)c(O)c1` [HINOKITIOL], the pIC50 was 4.21 at Thermolysin and 4.62 against Collagenase ColG. The mortality in the test with Coptotermes formosanus [1] stood at 100%; with Dermatophagoides farinae [2], 45.2%; in the test on Coptotermes formosanus [4] it was 50%; in the test with Tyrophagus putrescentiae [5], 77.5%; in the test on Tyrophagus putrescentiae [6], 33.6%; in the test with Coptotermes formosanus [8] it was 50%. Also, the mortality in the test on Coptotermes formosanus [9] stood at 100%; with Coptotermes formosanus [11] it was 100%; in the test with Dermatophagoides farinae [12], 18.8%. Moreover, the MIC was 12 µg/mL (≈ 73.1 µM) against Phomopsis obscurans; 12 µg/mL (≈ 73.1 µM) in the test on Thanatephorus cucumeris; 12 µg/mL (≈ 73.1 µM) against Pythium aphanidermatum; 50 µg/mL (≈ 304 µM) with Botrytis cinerea; 25 µg/mL (≈ 152 µM) with Colletotrichum lagenaria; 25 µg/mL (≈ 152 µM) in test [10]. For the same compound, the LC50 stood at 0.37 g/m2 in the test with Dermatophagoides farinae [3] and 0.24 g/m2 with Tyrophagus putrescentiae [7].
